According to ChEMBL document CHEMBL2384909, “Development of Novel Alkene Oxindole Derivatives As Orally Efficacious AMP-Activated Protein Kinase Activators” (ACS Med Chem Lett, 2013):
Calls of active or inactive are those of the source. The rule behind the calls is not given here.

Key:
Mus musculus [1] = assay: Upregulation of UCP2 gene expression in C57BL/6J mouse muscles at 15 to 150 mg/kg, po; type: functional, organism-based; conditions: Muscle tissue
Mus musculus [2] = assay: Upregulation of PGC1alpha gene expression in C57BL/6J mouse muscles at 15 to 150 mg/kg, po; type: functional, organism-based; conditions: Muscle tissue
Mus musculus [3] = assay: Upregulation of medium chain acyl CoA dehydrogenase gene expression in C57BL/6J mouse muscles at 15 to 150 mg/kg, po; type: functional, organism-based; conditions: Muscle tissue
Mus musculus [4] = assay: Upregulation of long chain acyl CoA dehydrogenase gene expression in C57BL/6J mouse muscles at 15 to 150 mg/kg, po; type: functional, organism-based; conditions: Muscle tissue
Mus musculus [5] = assay: Upregulation of CPT2 gene expression in C57BL/6J mouse muscles at 15 to 150 mg/kg, po; type: functional, organism-based; conditions: Muscle tissue
Mus musculus [6] = assay: Upregulation of FABP3 gene expression in C57BL/6J mouse muscles at 15 to 150 mg/kg, po; type: functional, organism-based; conditions: Muscle tissue
Mus musculus [7] = assay: Antidiabetic activity in diet-induced obese C57BL/6J mouse assessed as reduction in plasma triglyceride at 50 mg/kg, po qd for 4 weeks (reference value: 0.62 +/- 0.02 mM); type: functional
Mus musculus [8] = assay: Antidiabetic activity in diet-induced obese C57BL/6J mouse assessed as decrease in AUC at 50 to 150 mg/kg, po qd for 4 weeks by glucose tolerance test relative to control; type: functional; parameters: scale not given: the % may be the effect or the level left; conditions: dose mg/kg 50-150
[9] = Oral bioavailability in Wistar rat at 10 mg/kg by LC-MS/MS analysis; type: ADME, organism-based; conditions: in vivo
[10] = AUC (0 to infinity) in Wistar rat at 2 mg/kg, iv by LC-MS/MS analysis; type: ADME, organism-based; parameters: time infinity, dose 2 mg/kg, route intravenous; conditions: plasma
[11] = target: Voltage-gated inwardly rectifying potassium channel KCNH2 (Homo sapiens, UniProt Q12809); assay: Inhibition of human ERG
Sequence of Voltage-gated inwardly rectifying potassium channel KCNH2 (Q12809 whole entry): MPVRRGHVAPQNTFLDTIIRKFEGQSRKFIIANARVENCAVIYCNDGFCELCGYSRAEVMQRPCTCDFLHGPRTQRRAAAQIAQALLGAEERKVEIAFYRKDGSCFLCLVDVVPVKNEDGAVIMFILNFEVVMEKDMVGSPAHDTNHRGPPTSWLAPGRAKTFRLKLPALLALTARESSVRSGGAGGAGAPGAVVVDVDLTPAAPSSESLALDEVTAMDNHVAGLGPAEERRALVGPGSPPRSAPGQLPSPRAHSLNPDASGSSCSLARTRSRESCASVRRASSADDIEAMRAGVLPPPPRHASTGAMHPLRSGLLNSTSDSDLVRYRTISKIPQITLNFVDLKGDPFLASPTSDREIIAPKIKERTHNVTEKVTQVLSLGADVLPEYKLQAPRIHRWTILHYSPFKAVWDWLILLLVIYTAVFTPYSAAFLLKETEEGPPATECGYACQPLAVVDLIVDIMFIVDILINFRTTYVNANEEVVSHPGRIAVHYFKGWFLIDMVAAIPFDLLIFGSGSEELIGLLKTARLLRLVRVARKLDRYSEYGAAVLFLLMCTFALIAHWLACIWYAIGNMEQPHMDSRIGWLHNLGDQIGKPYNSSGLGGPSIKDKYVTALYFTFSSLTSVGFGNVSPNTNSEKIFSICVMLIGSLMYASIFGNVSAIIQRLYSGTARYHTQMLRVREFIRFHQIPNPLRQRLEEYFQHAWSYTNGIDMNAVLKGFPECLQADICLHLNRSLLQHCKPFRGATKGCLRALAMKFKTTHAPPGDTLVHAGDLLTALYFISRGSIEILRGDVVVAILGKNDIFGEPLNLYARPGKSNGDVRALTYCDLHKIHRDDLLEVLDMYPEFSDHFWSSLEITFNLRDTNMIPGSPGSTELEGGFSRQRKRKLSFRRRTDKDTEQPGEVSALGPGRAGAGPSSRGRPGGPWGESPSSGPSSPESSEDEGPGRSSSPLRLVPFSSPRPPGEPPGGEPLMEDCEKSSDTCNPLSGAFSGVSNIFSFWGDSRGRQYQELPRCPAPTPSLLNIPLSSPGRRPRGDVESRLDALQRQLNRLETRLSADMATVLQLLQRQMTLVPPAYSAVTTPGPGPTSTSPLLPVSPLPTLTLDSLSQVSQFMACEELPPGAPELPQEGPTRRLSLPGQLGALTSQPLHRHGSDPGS

Cytochrome P450 1A2 = target: T1, Cytochrome P450 1A2 (Homo sapiens, UniProt P05177); assay: Inhibition of CYP1A2 (unknown origin); type: ADME
T1 sequence (P05177 whole entry): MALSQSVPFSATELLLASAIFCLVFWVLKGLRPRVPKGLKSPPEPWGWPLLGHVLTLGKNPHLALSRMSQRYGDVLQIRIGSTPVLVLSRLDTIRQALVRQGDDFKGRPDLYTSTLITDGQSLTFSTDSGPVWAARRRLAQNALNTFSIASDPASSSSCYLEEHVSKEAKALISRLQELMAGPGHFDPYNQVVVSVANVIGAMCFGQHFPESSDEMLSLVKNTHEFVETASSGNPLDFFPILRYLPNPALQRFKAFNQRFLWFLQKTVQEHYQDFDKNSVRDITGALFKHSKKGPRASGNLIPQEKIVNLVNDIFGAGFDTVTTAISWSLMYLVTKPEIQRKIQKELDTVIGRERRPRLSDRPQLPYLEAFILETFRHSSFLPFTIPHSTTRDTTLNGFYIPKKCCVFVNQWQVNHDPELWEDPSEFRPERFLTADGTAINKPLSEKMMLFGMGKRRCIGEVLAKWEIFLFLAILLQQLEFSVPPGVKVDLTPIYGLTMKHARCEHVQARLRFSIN

Cytochrome P450 2C19 = Cytochrome P450 2C19 (Homo sapiens, UniProt P33261); assay: Inhibition of CYP2C19 (unknown origin); type: ADME
Sequence of Cytochrome P450 2C19 (P33261 whole entry): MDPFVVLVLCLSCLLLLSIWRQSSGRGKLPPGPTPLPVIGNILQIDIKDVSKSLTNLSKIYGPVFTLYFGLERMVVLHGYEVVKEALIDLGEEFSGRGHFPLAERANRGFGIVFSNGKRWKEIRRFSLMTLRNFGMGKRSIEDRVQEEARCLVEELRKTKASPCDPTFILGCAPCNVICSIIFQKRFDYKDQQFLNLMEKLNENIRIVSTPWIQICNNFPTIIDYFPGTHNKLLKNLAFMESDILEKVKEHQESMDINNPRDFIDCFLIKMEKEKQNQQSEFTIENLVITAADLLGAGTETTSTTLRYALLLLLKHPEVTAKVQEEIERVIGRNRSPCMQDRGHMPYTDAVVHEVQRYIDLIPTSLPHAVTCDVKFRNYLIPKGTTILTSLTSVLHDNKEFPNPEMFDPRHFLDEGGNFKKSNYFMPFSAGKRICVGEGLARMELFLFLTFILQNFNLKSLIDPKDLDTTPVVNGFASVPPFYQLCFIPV

Cytochrome P450 2C9 = Cytochrome P450 2C9 (Homo sapiens, UniProt P11712); assay: Inhibition of CYP2C9 (unknown origin); type: ADME
Sequence of Cytochrome P450 2C9 (P11712 whole entry): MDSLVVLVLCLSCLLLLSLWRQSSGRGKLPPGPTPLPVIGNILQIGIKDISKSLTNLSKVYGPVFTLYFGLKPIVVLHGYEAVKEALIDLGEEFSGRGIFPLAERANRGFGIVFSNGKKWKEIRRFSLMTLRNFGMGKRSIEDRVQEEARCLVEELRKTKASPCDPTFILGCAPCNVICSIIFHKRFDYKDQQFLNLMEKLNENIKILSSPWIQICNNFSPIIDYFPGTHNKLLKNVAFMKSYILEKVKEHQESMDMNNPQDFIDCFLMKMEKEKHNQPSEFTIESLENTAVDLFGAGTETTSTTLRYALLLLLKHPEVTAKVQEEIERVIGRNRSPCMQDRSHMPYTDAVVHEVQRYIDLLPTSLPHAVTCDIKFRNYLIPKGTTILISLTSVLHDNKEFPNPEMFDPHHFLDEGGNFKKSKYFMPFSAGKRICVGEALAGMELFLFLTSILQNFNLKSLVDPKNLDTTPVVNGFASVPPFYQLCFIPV

Cytochrome P450 3A4 = Cytochrome P450 3A4 (Homo sapiens, UniProt P08684); assay: Inhibition of CYP3A4 (unknown origin); type: ADME
Sequence of Cytochrome P450 3A4 (P08684 whole entry): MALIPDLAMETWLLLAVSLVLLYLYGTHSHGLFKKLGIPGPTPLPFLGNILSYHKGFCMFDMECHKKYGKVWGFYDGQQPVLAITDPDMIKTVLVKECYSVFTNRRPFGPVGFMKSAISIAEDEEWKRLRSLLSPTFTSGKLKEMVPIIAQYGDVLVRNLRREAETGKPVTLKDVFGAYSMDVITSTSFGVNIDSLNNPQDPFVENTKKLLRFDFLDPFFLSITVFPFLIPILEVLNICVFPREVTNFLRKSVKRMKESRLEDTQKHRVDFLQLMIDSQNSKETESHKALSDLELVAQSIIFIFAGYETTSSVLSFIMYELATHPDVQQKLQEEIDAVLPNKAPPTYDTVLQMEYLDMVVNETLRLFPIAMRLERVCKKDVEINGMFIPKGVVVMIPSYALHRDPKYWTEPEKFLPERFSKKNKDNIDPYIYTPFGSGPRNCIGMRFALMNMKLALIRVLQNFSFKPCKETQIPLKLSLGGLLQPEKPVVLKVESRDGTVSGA

Liver microsomes = assay: Drug metabolism in rat liver microsomes; type: ADME, Microsome
[12] = Drug metabolism in mouse liver microsomes; type: ADME, Microsome
[13] = target: T2, Inhibitor of nuclear factor kappa-B kinase subunit beta (Homo sapiens) (UniProt O14920); assay: Activity at IKKbeta (unknown origin)
T2 sequence (whole entry): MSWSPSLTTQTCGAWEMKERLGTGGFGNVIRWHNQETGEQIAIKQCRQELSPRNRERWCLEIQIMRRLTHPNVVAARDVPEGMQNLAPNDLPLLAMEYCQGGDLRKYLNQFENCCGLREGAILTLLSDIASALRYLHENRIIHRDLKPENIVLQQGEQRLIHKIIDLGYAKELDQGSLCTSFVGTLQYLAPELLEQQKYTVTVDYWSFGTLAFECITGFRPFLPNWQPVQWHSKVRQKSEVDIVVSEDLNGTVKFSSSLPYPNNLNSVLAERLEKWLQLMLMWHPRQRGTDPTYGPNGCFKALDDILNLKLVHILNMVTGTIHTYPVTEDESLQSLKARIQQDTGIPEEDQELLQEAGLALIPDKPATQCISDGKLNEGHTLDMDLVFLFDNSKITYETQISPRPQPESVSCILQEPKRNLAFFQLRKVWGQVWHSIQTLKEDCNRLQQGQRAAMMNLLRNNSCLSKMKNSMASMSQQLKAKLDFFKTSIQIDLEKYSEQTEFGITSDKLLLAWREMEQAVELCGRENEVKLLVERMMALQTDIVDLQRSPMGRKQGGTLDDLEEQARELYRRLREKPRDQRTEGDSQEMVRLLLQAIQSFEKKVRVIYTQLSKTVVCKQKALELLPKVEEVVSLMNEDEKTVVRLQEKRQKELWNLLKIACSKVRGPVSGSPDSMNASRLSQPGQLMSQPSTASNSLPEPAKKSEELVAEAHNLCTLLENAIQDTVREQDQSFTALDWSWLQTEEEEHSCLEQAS

[14] = target: Glycogen synthase kinase-3 beta (Homo sapiens) (UniProt P49841); assay: Activity at GSK3beta (unknown origin)
Sequence of Glycogen synthase kinase-3 beta (Homo sapiens) (P49841 whole entry, looked up): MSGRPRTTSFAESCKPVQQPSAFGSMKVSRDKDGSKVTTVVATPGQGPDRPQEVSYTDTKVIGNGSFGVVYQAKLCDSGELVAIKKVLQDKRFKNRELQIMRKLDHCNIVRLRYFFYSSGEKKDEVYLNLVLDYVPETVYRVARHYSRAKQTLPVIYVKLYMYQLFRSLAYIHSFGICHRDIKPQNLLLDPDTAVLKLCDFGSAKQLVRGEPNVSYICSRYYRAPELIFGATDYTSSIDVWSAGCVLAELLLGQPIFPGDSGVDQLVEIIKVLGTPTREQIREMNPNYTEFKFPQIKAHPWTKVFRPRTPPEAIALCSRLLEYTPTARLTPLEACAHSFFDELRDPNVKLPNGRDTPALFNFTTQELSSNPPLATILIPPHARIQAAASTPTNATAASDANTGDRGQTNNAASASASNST

[15] = target: T3, Aurora kinase A (Homo sapiens) (UniProt O14965); assay: Activity at Aurora A (unknown origin)
T3 sequence (whole entry): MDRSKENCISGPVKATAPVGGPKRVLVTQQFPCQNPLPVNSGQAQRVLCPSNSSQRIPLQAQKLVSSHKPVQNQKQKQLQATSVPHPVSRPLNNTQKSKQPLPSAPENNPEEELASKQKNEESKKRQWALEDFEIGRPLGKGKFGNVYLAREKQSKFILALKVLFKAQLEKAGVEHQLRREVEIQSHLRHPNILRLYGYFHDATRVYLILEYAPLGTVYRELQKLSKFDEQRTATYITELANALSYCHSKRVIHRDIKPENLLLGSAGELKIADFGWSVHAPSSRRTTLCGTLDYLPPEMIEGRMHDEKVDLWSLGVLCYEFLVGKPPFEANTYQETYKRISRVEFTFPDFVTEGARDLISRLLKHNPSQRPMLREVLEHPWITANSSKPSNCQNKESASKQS

L6 [16] = assay: Activation of AMPK alpha1 D159A/alpha2 K45R mutant in rat L6 cells assessed as stimulation of glucose uptake after 15 mins; type: cell-based
L6 [17] = assay: Induction of AMPK-mediated ACC phosphorylation in rat L6 cells by Western blotting analysis; type: cell-based
[18] = target: AMPK alpha2/beta1/gamma1 (Homo sapiens) (UniProt P54646+P54619+Q9Y478); assay: Activation of recombinant AMPK alpha2beta1gamma1 (unknown origin) at 20 ug/mL after 2 hrs by scintillation proximity assay relative to AMP; type: protein-complex assay
Sequence of AMPK alpha2/beta1/gamma1 (Homo sapiens) (P54619 whole entry partner): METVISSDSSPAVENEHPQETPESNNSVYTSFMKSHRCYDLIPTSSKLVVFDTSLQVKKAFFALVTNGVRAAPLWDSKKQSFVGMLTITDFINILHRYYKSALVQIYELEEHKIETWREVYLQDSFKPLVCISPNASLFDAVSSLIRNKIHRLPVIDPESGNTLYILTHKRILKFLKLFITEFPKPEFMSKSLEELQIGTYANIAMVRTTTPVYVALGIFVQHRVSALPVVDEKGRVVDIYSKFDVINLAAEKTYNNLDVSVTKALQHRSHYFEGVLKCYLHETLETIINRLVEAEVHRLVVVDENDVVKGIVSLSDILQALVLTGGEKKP
Sequence of AMPK alpha2/beta1/gamma1 (Homo sapiens) (P54646 whole entry): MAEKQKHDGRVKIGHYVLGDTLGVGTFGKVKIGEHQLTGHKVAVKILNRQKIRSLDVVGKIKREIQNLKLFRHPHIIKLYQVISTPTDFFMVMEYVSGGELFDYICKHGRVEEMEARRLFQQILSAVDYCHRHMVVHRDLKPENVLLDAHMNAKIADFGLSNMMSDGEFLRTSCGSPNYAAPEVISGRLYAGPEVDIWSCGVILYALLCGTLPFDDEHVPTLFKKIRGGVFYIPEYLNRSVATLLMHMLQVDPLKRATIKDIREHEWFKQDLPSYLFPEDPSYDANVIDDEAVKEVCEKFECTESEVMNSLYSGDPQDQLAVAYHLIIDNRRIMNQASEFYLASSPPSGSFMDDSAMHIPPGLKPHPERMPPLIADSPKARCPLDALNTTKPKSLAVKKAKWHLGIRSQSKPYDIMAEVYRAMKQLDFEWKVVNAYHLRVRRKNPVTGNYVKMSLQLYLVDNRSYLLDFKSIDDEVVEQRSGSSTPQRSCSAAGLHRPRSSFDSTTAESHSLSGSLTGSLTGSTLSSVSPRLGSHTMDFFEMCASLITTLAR
Sequence of AMPK alpha2/beta1/gamma1 (Homo sapiens) (Q9Y478 2-270 partner limits assumed): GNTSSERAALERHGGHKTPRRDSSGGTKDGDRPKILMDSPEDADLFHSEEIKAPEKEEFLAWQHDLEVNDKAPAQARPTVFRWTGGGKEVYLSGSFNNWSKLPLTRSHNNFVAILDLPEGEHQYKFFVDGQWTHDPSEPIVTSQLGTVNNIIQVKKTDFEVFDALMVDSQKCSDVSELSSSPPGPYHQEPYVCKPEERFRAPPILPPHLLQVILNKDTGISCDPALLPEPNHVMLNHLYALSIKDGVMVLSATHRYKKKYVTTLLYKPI

In the case of `O=C(O)c1cccc(CN2C(=O)/C(=C(\c3ccccc3)c3ccc(Cl)cc3)c3ccccc32)c1`, the Activity (Mus musculus [1]) is reported as “Active”, the Activity (Mus musculus [2]) is reported as “Active” and the Activity (Mus musculus [3]) is reported as “Active”. The Activity (Mus musculus [4]) was “Active”, the Activity (Mus musculus [5]) was “Active” and the Activity (Mus musculus [6]) was “Active”. It also gave an Activity (Mus musculus [7]) of 0.52 mM, an Activity (Mus musculus [8]) of 30% and a bioavailability [9] of 33.7%. For the same compound, the AUC(0-inf) [10] was 17500 ng·h/mL, the IC50 [11] was > 20 µM and the “inhibition (INH)” value (Cytochrome P450 1A2) was “Not Active”. The “inhibition (INH)” value (Cytochrome P450 2C19) was “Not Active”, the “inhibition (INH)” value (Cytochrome P450 2C9) was “Not Active” and the “inhibition (INH)” value (Cytochrome P450 3A4) was “Not Active”. For the same compound, the Drug metabolism (Liver microsomes) was “Not Active”, the Drug metabolism [12] was “Not Active” and the Activity [13] was “inactive”. The Activity [14] was “inactive”, the Activity [15] was “inactive” and the Activity (L6 [16]) was “inactive”. For the same compound, the Activity (L6 [17]) was “Dose-dependent effect” and the Efficacy [18] was 110%.
